{
  "source": "patent US20230027854A1",
  "about": "“ISOXAZOLE DERIVATIVES TARGETING TACC3 AS ANTICANCER AGENTS” (A2A Pharmaceuticals, inc., priority 2019, published 2023)",
  "key": {"JIMT-1 cells [1]": {"tested_on": "JIMT-1 cells", "assay": "JIMT-1 cell growth inhibition / cell viability (SRB assay)", "format": "cell-based", "conditions": "Homo sapiens", "description": "The ability of the compounds of the present disclosure to treat TACC3-mediated cancers, or associated symptoms or complications thereof, was determined using the following procedures. The compounds of the present disclosure were tested for their activity against cell death induction using a JIMT-1 cell line, which was a cell line having high level of TACC3. The concentration of each compound that was required for half-maximal inhibition of cell proliferation was calculated by a GraphPad Prism (GraphPad Software)."}, "[2]": {"tested_on": "JIMT-1, MDA-MB-436, MDA-MB-157 and BT-474 T-DM1R cell lines", "assay": "Cell viability (SRB) of breast cancer cell lines, three TACC3 inhibitors compared", "format": "cell-based, human", "conditions": "all cell lines tested, 72 hours", "description": "(§1) JIMT-1, MDA-MB-436, MDA-MB-157 and BT-474 T-DM1R cell lines were tested with respect to their response to these three drugs. […] Although higher KHS101 doses was included, which were used by others (Campo & Breuer, 2018), an induction of these markers was only observed at very high doses."}, "JIMT-1 cells [3]": {"tested_on": "JIMT-1 cells", "assay": "Western blot of mitotic arrest, DNA damage and apoptosis markers", "format": "cell-based, human", "conditions": "24 hours, dose response", "description": "as §1"}, "JIMT-1 cells [4]": {"tested_on": "JIMT-1 cells", "assay": "Annexin V/PI staining", "format": "cell-based, human", "conditions": "500 nM, 72 h; vehicle 4.1%"}, "JIMT-1 cells [5]": {"tested_on": "JIMT-1 cells", "assay": "Immunofluorescence of aberrant spindle formation", "format": "cell-based, human", "conditions": "highest dose, 12 h", "description": "The presence of spindle defects activates the spindle assembly checkpoint (SAC) that further leads to mitotic arrest to provide the necessary time for repairing the spindle defects (Musacchio and Salmon 2007). […] To further test the contribution of an active SAC signaling to compound 5-induced mitotic arrest, DNA damage and cell death, we inhibited the SAC kinase, Mps1 using a specific inhibitor (TC Mps1 (Choi, Min et al. 2017)) in compound 5-treated cells, and analyzed the expression of relevant markers.\nImmunofluorescence staining of JIMT-1 cells were performed as previously described (Cizmecioglu, Arnold et al. 2010). Basically, 1.5×10^5 JIMT-1 cells/well were seeded on glass coverslip in 6-well plates. […] Then, they are fixed with ice-cold methanol for 10 min at −20° C. Cells were then blocked with 3% BSA in PBS solution for 1 hour at RT and incubated with primary and secondary antibodies for 1 hour at RT. Cells were counter stained with DAPI for 5 min (0.01 μg/ml). Lastly, cover slides were mounted using ImmunoHistomounth (Santa Cruz). Images were taken with an upright fluorescent microscope equipped with DIC prisms (upright)."}, "RT112 and RT4": {"tested_on": "RT112 and RT4", "assay": "Cell viability (SRB) of FGFR3-TACC3 fusion expressing cell lines", "format": "cell-based, human", "conditions": "both models RT112 and RT4, 3 days", "procedure": "KHS101 (Sigma Aldrich) and SPL-B (Axon MedChem, VA, USA) were dissolved in 100% DMSO to yield a stock concentration of 50 mM. Newly synthesized molecules were dissolved in 100% DMSO to yield a stock concentration of 10 mM. […] Cell viability was measured 72 hours after treatment with Sulforhodamine B (SRB, Sigma Aldrich) assay as recommended by the manufacturer."}, "NCI-60 human cell lines": {"tested_on": "NCI-60 human cell lines", "assay": "NCI-60 five-dose screen", "format": "cell-based", "description": "Detailed screening methodology can be accessed from https://dtp.cancer.gov/discovery_development/nci-60/methodology.htm webpage. Briefly, 24 h after cell seeding into 96-well plates, cells were treated with 5-log M concentration range of the compound for 2 days. Cytotoxicity was assessed using SRB assay. The data presented in the FIG.s are the average values of both experiments."}, "MCF-12A": {"tested_on": "MCF-12A", "assay": "Cell viability of normal breast epithelial cells", "format": "cell-based, human", "conditions": "5, 10 μM", "description": "Next, the specificity of compound 5 towards cancer cell lines over normal cells were tested. […] To test the transforming potential of TACC3 and dependency of cells to TACC3 to survive, we performed a clonogenic growth assay in MCF-12A cells after overexpressing TACC3. […] To exclude the possibility that the differences we observed between cancer and normal cells are due to the differences in the proliferation rates of these cells, we calculated their doubling times."}, "JIMT-1 xenografts": {"tested_on": "JIMT-1 xenografts", "assay": "JIMT-1 xenograft tumor growth in female nude mice", "format": "in vivo"}, "EMT6": {"tested_on": "EMT6", "conditions": "25 mg/kg every day orally", "description": "Murine triple negative breast cancer (TNBC) cell line, EMT6, which is a fast-growing and highly aggressive model (Yang, Yang et al. 2017), was injected into MFPs of syngeneic Balb/c mice.\nSix-to-eight-week-old female athymic nude or Balb/c mice were housed with a temperature-controlled and 12-hour light/12-hour dark cycle environment. This study was carried out in accordance with Institutional Animal Care and Use Committee of Bilkent University and performed according to the institution's guidelines and animal research principles. For in vivo breast cancer tumor growth in nude mice, 4×10^6 JIMT-1 cells were prepared in 150 μl of 1:1 DMEM and Matrigel (Corning, N.Y., USA), v/v) and injected into the mammary fat pads (MFP) of female nude mice. Mouse weight and tumor volume were measure daily using calipers. Tumor volumes were calculated as length×width^2×0.5. Once the tumor volume had reached about 90-100 mm^3, xenografts were randomized into groups. […] Mice were sacrificed 20-30 days after initiation of the treatments, and the tumors were collected and stored for subsequent analyses. […] 1×10^6 EMT-6 cells were prepared in PBS and injected into MFPs of mice. […] Survival was calculated using a predefined tumor volume cut-off of 1500 mm^3."}, "[6]": {"description": "Mice body weight was measured regularly, and organs were collected for determination of possible toxicity."}, "[7]": {"assay": "Log D, octanol/sodium phosphate buffer", "format": "physicochemical", "conditions": "octanol/sodium phosphate buffer (50 mM, pH 7.4); read-out: log D7.4"}, "[8]": {"assay": "Kinetic solubility in sodium phosphate buffer", "format": "physicochemical", "conditions": "pH 7.4, 25° C., 2 h"}, "[9]": {"assay": "Stability in human liver microsomes", "format": "in vitro ADME"}, "[10]": {"assay": "Stability in mouse liver microsomes", "format": "in vitro ADME"}, "CYP2CD6": {"target": "CYP2CD6 (Homo sapiens, UniProt P10635)", "sequence (P10635 whole entry)": "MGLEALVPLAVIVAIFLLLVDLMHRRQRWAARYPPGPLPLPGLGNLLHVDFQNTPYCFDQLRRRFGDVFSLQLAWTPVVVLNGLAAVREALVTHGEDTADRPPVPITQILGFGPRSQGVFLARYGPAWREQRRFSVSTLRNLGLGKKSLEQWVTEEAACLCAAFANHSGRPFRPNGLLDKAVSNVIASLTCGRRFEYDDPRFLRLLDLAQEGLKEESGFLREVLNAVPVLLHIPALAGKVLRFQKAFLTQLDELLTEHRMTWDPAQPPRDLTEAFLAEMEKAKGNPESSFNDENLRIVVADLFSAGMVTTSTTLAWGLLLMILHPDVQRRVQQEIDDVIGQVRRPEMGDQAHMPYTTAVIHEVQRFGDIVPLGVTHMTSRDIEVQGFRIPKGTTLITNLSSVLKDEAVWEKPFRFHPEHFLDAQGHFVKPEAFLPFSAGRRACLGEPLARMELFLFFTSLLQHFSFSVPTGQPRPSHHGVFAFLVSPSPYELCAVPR", "conditions": "read-out: IC50 CYP2CD6; human liver microsomes"}, "[11]": {"conditions": "2 mg/kg (po. or i.v) or 5 mg/kg (po.) every two days for 30 days"}, "[12]": {"conditions": "5 mg/kg oral every other day for 30 days"}},
  "note": "Read-outs that look alike come from different tables or passages of the source.",
  "data": [
    {"smiles": "COc1ccc(-c2cc(Nc3ccnc(N4CCOCC4)n3)on2)cc1", "note": "[Compound 5]", "values": [
      {"measurement": "IC50", "setting": "JIMT-1 cells [1]; JIMT-1 cells, read-out: IC50", "result": 120, "unit": "nM"},
      {"measurement": "IC50", "setting": "JIMT-1 cells [1]; cultured cells, in-house screening on JIMT-1, read-out: IC50, suppresses cell growth", "result": 190, "unit": "nM"},
      {"measurement": "IC50 values compared with KHS101 and SPL-B", "setting": "[2]", "result": "significantly lower IC50 values"},
      {"measurement": "induction of mitotic arrest, DNA damage and apoptosis markers", "setting": "JIMT-1 cells [3]", "result": "dose-dependent manner"},
      {"measurement": "fraction of apoptotic cells (Annexin V/PI)", "setting": "JIMT-1 cells [4]", "result": 45.6, "unit": "%"},
      {"measurement": "frequency of multipolar spindles", "setting": "JIMT-1 cells [5]", "result": 73.4, "unit": "%"},
      {"measurement": "IC50 value compared to SPL-B and KHS101", "setting": "RT112 and RT4", "result": "lowest IC50 value"},
      {"measurement": "share of NCI-60 cell lines with less than 1 μM GI50 value", "setting": "NCI-60 human cell lines", "result": "~90", "unit": "%"},
      {"measurement": "GI50", "setting": "NCI-60 human cell lines; Homo sapiens, read-out: 50% growth inhibition (GI50) value, almost all cell lines", "result": "< 1000", "unit": "nM"},
      {"measurement": "growth inhibition of cells at high doses", "setting": "MCF-12A", "result": "did not reach to 50% growth inhibition"},
      {"measurement": "body weight of mice", "setting": "JIMT-1 xenografts; [11]", "result": "did not have any negative effect on the body weight"},
      {"measurement": "tumor growth rate compared with control group", "setting": "JIMT-1 xenografts; [11]", "result": "decreased"},
      {"measurement": "body weight of mice", "setting": "JIMT-1 xenografts; [12]", "result": "no major effect on the body weight"},
      {"measurement": "tumor growth as compared to SPL-B", "setting": "JIMT-1 xenografts; [12]", "result": "significant reduction of tumor growth"},
      {"measurement": "mice weight", "setting": "JIMT-1 xenografts; 25 mg/kg, po., 23 days", "result": "did not affect the mice weight"},
      {"measurement": "tumor growth compared to vehicle-treated mice", "setting": "JIMT-1 xenografts; 25 mg/kg, po., 23 days", "result": "very significant reduction of tumor growth"},
      {"measurement": "tumor weights compared to vehicle group", "setting": "JIMT-1 xenografts; 25 mg/kg, po., 23 days", "result": "significantly lower"},
      {"measurement": "tolerability", "setting": "EMT6", "result": "well tolerated"},
      {"measurement": "tumor growth inhibition", "setting": "EMT6", "result": "significant tumor growth inhibition"},
      {"measurement": "increased lifespan", "setting": "EMT6; compared to vehicle", "result": 57.1, "unit": "%"},
      {"measurement": "median survival", "setting": "EMT6; vehicle 14 days", "result": 22, "unit": "days"},
      {"measurement": "body weight and observable toxicity", "setting": "[6]; 100 mg/kg daily for 7 days", "result": "did not affect body weight"},
      {"measurement": "organ toxicity", "setting": "[6]; 500 mg/kg once", "result": "no organ toxicity was observable"},
      {"measurement": "loss of body weight", "setting": "[6]; 500 mg/kg once, 24 h after drug treatment", "result": 10, "unit": "%"},
      {"measurement": "logD", "setting": "[7]", "result": 2.3},
      {"measurement": "solubility", "setting": "[8]", "result": "low solubility"},
      {"measurement": "stability in human liver microsomes", "setting": "[9]", "result": "low stability"},
      {"measurement": "stability in mouse liver microsomes", "setting": "[10]", "result": "low stability"},
      {"measurement": "IC50", "setting": "CYP2CD6", "result": 18500, "unit": "nM"}
    ]}
  ]
}
